These results are taken from US9221767B2, “Substituted phthalazinones as rock inhibitors” (BRISTOL-MYERS SQUIBB COMPANY, priority 2013, dated 2015).

For assay [1], the target named is ROCK2 (Homo sapiens (Human), UniProt O75116). As to the kind of experiment: ROCK assay (LabChip peptide phosphorylation), ROCK2. The assay is classed as biochemical. To be noted: 5 μM ATP, 1.5 μM peptide substrate. On the procedure: (§1) The effectiveness of compounds of the present invention as ROCK inhibitors can be determined in a 30 μL assay containing 20 mM HEPES, pH 7.5, 20 mM MgCl2, 0.015% Brij-35, 4 mM DTT, 5 μM ATP and 1.5 μM peptide substrate (FITC-AHA-[…]-OH). Compounds were dissolved in DMSO so that the final concentration of DMSO was <2%, and the reaction was initiated with Rho kinase variants. After incubation, the reaction was terminated by the addition of EDTA and the phosphorylated and non-phosphorylated peptides separated using a LabChip 3000 Reader (Caliper Life Sciences). […] Compounds were tested in dose-response format, and the inhibition of kinase activity was calculated at each concentration of compound. The inhibition data were fit using a curve-fitting program to determine the IC50; i.e., the concentration of compound required to inhibit 50% of kinase activity.”

Assay [2] addresses ROCK1 (Homo sapiens (Human), UniProt Q13464). As to the kind of experiment: ROCK assay (LabChip peptide phosphorylation), ROCK1. Format: biochemical. To be noted: 5 μM ATP, 1.5 μM peptide substrate. On the procedure: as §1
In assay [3] the test system is spontaneously hypertensive rat, renal hypertensive rat and deoxycortisone acetate salt hypertensive rat models. The note with it: cited from earlier work.
Assay [4] concerns neointimal formation in rats. To be noted: cited from earlier work.
Assay [5] relates to Dahl salt-sensitive rats. To be noted: rat, in vivo; cited from earlier work.
Assay [6] relates to IL-1 beta-induced coronary stenosis. To be noted: long term treatment; cited from earlier work.
The subject of assay [7] is rat stroke model. The note with it: in vivo; cited from earlier work.

Like-named read-outs stand apart in the source and are kept apart here.

Chain of ROCK2 (O75116 whole entry, species assumed): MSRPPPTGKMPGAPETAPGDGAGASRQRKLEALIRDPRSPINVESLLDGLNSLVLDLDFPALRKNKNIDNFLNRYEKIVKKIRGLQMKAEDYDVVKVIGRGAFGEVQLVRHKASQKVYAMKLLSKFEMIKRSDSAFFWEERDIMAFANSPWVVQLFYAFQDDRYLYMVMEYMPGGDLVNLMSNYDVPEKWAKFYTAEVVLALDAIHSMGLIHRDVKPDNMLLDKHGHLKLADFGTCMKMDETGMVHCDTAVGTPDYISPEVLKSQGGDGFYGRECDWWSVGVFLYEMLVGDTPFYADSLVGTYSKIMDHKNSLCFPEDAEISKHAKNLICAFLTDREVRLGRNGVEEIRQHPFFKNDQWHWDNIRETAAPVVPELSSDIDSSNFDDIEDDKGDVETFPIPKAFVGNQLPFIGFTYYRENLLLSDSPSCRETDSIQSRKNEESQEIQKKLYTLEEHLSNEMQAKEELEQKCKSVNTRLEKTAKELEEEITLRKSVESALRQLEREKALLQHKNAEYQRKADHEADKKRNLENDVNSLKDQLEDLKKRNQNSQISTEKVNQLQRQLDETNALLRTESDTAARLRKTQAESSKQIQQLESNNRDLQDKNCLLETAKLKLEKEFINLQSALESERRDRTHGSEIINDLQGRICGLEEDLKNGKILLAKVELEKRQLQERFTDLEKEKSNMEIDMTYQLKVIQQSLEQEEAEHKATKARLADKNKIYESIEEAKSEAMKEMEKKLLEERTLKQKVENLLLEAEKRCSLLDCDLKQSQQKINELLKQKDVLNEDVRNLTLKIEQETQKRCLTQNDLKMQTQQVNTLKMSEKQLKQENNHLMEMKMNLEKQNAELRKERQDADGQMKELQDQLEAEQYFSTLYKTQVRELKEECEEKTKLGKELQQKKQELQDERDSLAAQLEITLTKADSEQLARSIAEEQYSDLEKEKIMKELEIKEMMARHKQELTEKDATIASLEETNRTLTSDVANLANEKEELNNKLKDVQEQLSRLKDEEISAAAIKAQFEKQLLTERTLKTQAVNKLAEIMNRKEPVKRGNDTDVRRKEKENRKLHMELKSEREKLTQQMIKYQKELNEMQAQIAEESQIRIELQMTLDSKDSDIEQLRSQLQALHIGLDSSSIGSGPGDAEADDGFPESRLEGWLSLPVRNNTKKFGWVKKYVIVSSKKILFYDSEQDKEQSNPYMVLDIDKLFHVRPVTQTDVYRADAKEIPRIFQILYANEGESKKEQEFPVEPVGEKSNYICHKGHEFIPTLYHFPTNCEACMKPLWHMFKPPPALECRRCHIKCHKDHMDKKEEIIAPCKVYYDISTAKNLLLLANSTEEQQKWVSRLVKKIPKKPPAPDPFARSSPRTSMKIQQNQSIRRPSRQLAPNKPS
Chain of ROCK1 (Q13464 whole entry, species assumed): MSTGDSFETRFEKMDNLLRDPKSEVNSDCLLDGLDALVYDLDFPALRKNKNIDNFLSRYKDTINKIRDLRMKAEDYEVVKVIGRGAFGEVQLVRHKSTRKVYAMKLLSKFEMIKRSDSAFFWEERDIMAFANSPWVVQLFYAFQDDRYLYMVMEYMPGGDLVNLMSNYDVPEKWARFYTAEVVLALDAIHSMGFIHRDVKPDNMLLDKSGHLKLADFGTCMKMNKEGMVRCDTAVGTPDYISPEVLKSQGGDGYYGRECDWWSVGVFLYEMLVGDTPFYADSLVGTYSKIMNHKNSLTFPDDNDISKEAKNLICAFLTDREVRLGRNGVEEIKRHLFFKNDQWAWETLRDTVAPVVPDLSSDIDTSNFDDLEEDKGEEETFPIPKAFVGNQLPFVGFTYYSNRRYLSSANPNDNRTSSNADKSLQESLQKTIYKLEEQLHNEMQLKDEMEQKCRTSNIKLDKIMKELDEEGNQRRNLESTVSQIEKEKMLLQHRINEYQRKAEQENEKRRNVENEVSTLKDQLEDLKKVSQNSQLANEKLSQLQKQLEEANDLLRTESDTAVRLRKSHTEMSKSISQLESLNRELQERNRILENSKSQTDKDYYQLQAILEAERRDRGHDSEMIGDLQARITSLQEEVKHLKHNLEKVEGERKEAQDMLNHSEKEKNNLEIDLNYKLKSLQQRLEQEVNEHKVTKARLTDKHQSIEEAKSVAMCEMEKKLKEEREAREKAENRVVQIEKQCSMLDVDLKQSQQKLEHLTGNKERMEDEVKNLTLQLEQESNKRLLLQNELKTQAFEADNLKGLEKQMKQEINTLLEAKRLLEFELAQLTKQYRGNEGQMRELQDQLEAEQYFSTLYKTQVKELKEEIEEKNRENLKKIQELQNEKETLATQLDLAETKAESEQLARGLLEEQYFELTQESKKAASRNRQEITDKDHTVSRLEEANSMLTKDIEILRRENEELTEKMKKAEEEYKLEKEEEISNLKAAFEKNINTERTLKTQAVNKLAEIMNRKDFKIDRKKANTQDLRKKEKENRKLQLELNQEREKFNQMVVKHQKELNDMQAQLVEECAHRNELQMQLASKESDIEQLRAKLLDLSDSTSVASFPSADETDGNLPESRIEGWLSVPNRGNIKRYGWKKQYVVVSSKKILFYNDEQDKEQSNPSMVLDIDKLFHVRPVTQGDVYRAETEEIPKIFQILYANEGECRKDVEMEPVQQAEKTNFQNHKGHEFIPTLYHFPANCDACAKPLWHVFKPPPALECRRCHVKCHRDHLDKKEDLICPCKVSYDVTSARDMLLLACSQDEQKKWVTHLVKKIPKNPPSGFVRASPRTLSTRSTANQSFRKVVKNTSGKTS

With `O=C(Cc1ccc(-c2n[nH]c(=O)c3ccccc23)cc1)N1Cc2ccc(F)cc2C1` [Example 2, 4-(4-(2-(5-fluoroisoindolin-2-yl)-2-oxoethyl)phenyl)phthalazin-1(2H)-one], the IC50 (as a rule, the concentration at which inhibition is half-maximal) came out at 30 nM in assay [1] and 679 nM in assay [2].
The like results for `O=C(Cc1ccc(-c2n[nH]c(=O)c3ccccc23)cc1)Nc1nc2ccccc2o1` [Example 10] were, in that order, 17 nM and 729 nM.
For `COC[C@@H]1CCCN1C(=O)Cc1ccc(-c2n[nH]c(=O)c3ccccc23)cc1` [Example 13], in that order: 9730 nM and 16200 nM.
For `O=C(Cc1ccc(-c2n[nH]c(=O)c3ccccc23)cc1)NC1CCC1` [Example 19], in that order: 5830 nM and 6480 nM.
For the molecule `CCOc1ccc2c(c1)N(C(=O)Cc1ccc(-c3n[nH]c(=O)c4ccccc34)cc1)CC2` [Example 33], the IC50 in assay [1] is 1.2 nM; in assay [2] it was 23 nM.
Turning to `O=C(Cc1ccc(-c2n[nH]c(=O)c3ccccc23)cc1)N1CCCc2ccccc21` [Example 34], the IC50 in assay [1] was determined as 553 nM; in assay [2], 11900 nM.
The like results for `O=C(Nc1ccc(-c2n[nH]c(=O)c3ccccc23)cc1)c1csc(-c2ccc(C(F)(F)F)cc2)n1` [Example 48] were, in that order, 39 nM and 670 nM.
For `Cn1ccnc1C(=O)Nc1ccc(-c2n[nH]c(=O)c3ccccc23)cc1` [Example 52], in that order: 225 nM and 544 nM.
For `CN(C)c1ccc(C(=O)Nc2ccc(-c3n[nH]c(=O)c4ccccc34)cc2)cc1` [Example 58], in that order: 0.3 nM and 35 nM.
Consider `O=C(Nc1ccc(-c2n[nH]c(=O)c3ccccc23)cc1)c1ccc(N2CCCCC2)cc1` [Example 61], for which the values for the IC50 in assay [1] and in assay [2] were 2.1 nM and 49 nM, respectively.
For `O=C(Nc1ccc(-c2n[nH]c(=O)c3ccccc23)cc1)c1ccccc1` [Example 67], in that order: 14 nM and 175 nM.
The like results for `O=C(Oc1ccc(-c2n[nH]c(=O)c3ccccc23)cc1)N1CCC(c2ccccc2)C1` (stereo not shown) [Example 69, 4-(4-oxo-3,4-dihydrophthalazin-1-yl)phenyl 3-phenylpyrrolidine-1-carboxylate] were, in that order, 894 nM and 50000 nM.
The like results for `O=C(Nc1ccc(-c2n[nH]c(=O)c3ccccc23)cc1)N1CCc2ccccc21` [Example 76, N-(4-(4-oxo-3,4-dihydrophthalazin-1-yl)phenyl)indoline-1-carboxamide] were, in that order, 1.2 nM and 20 nM.
As to `C[C@@H](N)[C@H]1CC[C@H](C(=O)Nc2ccncc2)CC1` [Example Y-27632, Y-27632], the blood pressure result was “only a minor effect on blood pressure” in assay [3] (control rats) and “significantly decrease blood pressure” in assay [3] (three rat models of hypertension). In addition, the neointimal formation entry in assay [4] is reported as “inhibited neointimal formation”. In addition, the “ventricular hypertrophy, fibrosis and function” value in assay [5] is “improve ventricular hypertrophy, fibrosis and function”.
In the case of `O=S(=O)(c1cccc2cnccc12)N1CCCNCC1` [fasudil], in assay [6], the coronary constrictive remodeling result was “promote a regression of coronary constrictive remodeling” and the coronary stenosis result is listed as “progressively reduce coronary stenosis”. In addition, in assay [7], the infarct size entry was “reduce” and the neurologic deficit result was “reduce”.
